# According to paper PMC7044277 (Nature Communications, 2020):
# Where “and” joins values, the source holds several entries; their conditions need not be identical. Equal values may be shown once.
# Legend:
# [1] = target: DRD2 (D2 long receptor) wild-type (Homo sapiens, UniProt P14416); assay: Radioligand competition binding, [3H]-N-methylspiperone, HEK293T membranes; set-up: Fig_1a competition binding curve, source data: unit not given here; details: Log [L-741626]
# DRD3 wild-type = DRD3 wild-type (Homo sapiens, UniProt P35462); assay: Radioligand competition binding, [3H]-N-methylspiperone; set-up: Fig_1a competition binding curve, source data: unit not given here; details: for Fig_1a competition binding curve, source data: Log [L-741626]
# Chain of DRD3 wild-type (P35462 whole entry): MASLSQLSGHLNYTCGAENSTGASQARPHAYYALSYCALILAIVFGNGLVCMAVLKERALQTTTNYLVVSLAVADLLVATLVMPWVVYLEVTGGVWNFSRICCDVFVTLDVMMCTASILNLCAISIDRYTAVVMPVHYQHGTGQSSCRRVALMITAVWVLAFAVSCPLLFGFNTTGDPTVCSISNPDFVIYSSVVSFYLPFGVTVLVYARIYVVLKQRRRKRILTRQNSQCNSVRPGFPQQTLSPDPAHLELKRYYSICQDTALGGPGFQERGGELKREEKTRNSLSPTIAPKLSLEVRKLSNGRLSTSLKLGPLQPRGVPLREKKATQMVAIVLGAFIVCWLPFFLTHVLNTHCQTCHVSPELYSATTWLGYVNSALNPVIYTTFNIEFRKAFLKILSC
# [2] = target: T1, DRD4 (D4.4 variant) wild-type (Homo sapiens, UniProt P21917); assay: as above; details: for Fig_1a competition binding curve, source data: Log [L-741626]
# T1 sequence (P21917 1-419): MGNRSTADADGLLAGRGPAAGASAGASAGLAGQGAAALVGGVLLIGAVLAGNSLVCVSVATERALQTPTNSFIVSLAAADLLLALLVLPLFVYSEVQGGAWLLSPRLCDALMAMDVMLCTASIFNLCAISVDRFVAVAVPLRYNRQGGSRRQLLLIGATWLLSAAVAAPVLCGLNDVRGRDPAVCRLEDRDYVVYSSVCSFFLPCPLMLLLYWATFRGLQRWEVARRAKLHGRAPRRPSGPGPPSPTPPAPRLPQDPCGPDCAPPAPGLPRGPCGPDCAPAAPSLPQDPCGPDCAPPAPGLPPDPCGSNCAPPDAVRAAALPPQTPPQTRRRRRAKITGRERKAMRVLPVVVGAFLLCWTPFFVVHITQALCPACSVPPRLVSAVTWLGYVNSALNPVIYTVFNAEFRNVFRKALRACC
# DRD2 L942.64A = target: T2, DRD2 L942.64A (Homo sapiens, UniProt P14416, L94A); format: binding; details: DRD2 L942.64A vs DRD2 wild-type
# T2 construct: expressed in transfected cells; host or cells: HEK293T (ATCC CRL-11268)
# T2 sequence (P14416 whole entry L94A): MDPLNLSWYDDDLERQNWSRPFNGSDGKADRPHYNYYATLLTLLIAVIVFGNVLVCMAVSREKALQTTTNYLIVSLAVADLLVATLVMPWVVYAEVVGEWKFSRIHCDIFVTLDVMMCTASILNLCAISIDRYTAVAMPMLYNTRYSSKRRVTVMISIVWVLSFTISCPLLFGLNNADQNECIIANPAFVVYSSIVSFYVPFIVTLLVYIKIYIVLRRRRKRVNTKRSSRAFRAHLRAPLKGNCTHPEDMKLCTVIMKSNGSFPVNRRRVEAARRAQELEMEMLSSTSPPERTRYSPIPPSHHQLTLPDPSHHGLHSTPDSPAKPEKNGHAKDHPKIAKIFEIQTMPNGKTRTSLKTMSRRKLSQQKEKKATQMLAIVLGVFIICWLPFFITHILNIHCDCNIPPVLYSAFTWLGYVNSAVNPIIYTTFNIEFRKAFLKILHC
# DRD2 W100EL1A = target: T3, DRD2 W100EL1A (Homo sapiens, UniProt P14416, W100A); format: binding; details: DRD2 W100EL1A vs wild-type
# T3 construct: expressed in transfected cells; host or cells: HEK293T (ATCC CRL-11268)
# T3 sequence (P14416 whole entry W100A): as the sequence (P14416 whole entry L94A) above, with A94L, W100A counted along it
# DRD2 W100ECL1F = target: T4, DRD2 W100ECL1F (Homo sapiens, UniProt P14416, W100F); format: binding; details: DRD2 W100ECL1F vs wild-type
# T4 construct: expressed in transfected cells; host or cells: HEK293T (ATCC CRL-11268)
# T4 sequence (P14416 whole entry W100F): as the sequence (P14416 whole entry L94A) above, with A94L, W100F counted along it
# DRD2 V1113.29A = target: T5, DRD2 V1113.29A (Homo sapiens, UniProt P14416, V111A); format: binding; details: DRD2 V1113.29A vs wild-type
# T5 construct: expressed in transfected cells; host or cells: HEK293T (ATCC CRL-11268)
# T5 sequence (P14416 whole entry V111A): as the sequence (P14416 whole entry L94A) above, with A94L, V111A counted along it
# DRD2 Y4087.35A = target: T6, DRD2 Y4087.35A (Homo sapiens, UniProt P14416, Y408A); format: binding; details: DRD2 Y4087.35A vs wild-type
# T6 construct: expressed in transfected cells; host or cells: HEK293T (ATCC CRL-11268)
# T6 sequence (P14416 whole entry Y408A): as the sequence (P14416 whole entry L94A) above, with A94L, Y408A counted along it
# DRD2 F1103.28W = target: T7, DRD2 F1103.28W (Homo sapiens, UniProt P14416, F110W); format: binding
# T7 construct: expressed in transfected cells; host or cells: HEK293T (ATCC CRL-11268)
# T7 sequence (P14416 whole entry F110W): as the sequence (P14416 whole entry L94A) above, with A94L, F110W counted along it
# DRD2 F1103.28Y = target: T8, DRD2 F1103.28Y (Homo sapiens, UniProt P14416, F110Y); format: binding
# T8 construct: expressed in transfected cells; host or cells: HEK293T (ATCC CRL-11268)
# T8 sequence (P14416 whole entry F110Y): as the sequence (P14416 whole entry L94A) above, with A94L, F110Y counted along it
# DRD2 F1103.28L = target: T9, DRD2 F1103.28L (Homo sapiens, UniProt P14416, F110L); format: binding
# T9 construct: expressed in transfected cells; host or cells: HEK293T (ATCC CRL-11268)
# T9 sequence (P14416 whole entry F110L): as the sequence (P14416 whole entry L94A) above, with A94L, F110L counted along it
# DRD2 F1103.28C = target: T10, DRD2 F1103.28C (Homo sapiens, UniProt P14416, F110C); format: binding; details: DRD2 F1103.28C vs wild-type
# T10 construct: expressed in transfected cells; host or cells: HEK293T (ATCC CRL-11268)
# T10 sequence (P14416 whole entry F110C): as the sequence (P14416 whole entry L94A) above, with A94L, F110C counted along it
# DRD2 F1103.28E = target: T11, DRD2 F1103.28E (Homo sapiens, UniProt P14416, F110E); format: binding; details: DRD2 F1103.28E vs wild-type
# T11 construct: expressed in transfected cells; host or cells: HEK293T (ATCC CRL-11268)
# T11 sequence (P14416 whole entry F110E): as the sequence (P14416 whole entry L94A) above, with A94L, F110E counted along it
# DRD3 F1063.28A = DRD3 F1063.28A (Homo sapiens, UniProt P35462, F106A); assay: biochemical; format: binding
# Chain of DRD3 F1063.28A (P35462 whole entry F106A): as the sequence (P35462 whole entry) above, with F106A counted along it
# DRD2 F1103.28A = DRD2 F1103.28A (Homo sapiens, UniProt P14416, F110A); format: binding; set-up: expressed in transfected cells; host or cells: HEK293T (ATCC CRL-11268)
# Chain of DRD2 F1103.28A (P14416 whole entry F110A): as the sequence (P14416 whole entry L94A) above, with A94L, F110A counted along it
# Chain of DRD2 (D2 long receptor) wild-type (P14416 whole entry): as the sequence (P14416 whole entry L94A) above, with A94L counted along it
smiles,measurement,setting,value
OC1(c2ccc(Cl)cc2)CCN(Cc2c[nH]c3ccccc23)CC1 [L-741626],"Fig_1a competition binding curve, source data","[1]; M -4, replicates",-1.355 and 1.993 and -0.6377 and -1.594 and 3.428 and -1.8334
same,"Fig_1a competition binding curve, source data",[1]; M -7,29.733 and 32.3635 and 33.0809 and 32.8418 and 34.0375 and 33.3201
same,"Fig_1a competition binding curve, source data",[1]; M -8,78.2782 and 80.4304 and 73.2563 and 83.061 and 72.778 and 84.4958
same,"Fig_1a competition binding curve, source data",[1]; M -8.5,93.8222 and 94.0614 and 107.453 and 92.6265 and 93.1048
same,"Fig_1a competition binding curve, source data",[1]; M -9,100.279 and 96.4528 and 102.67 and 87.1264 and 100.04 and 104.584
same,"Fig_1a competition binding curve, source data",[1]; M -9.5,97.4093 and 108.171 and 98.605 and 95.0179 and 103.388
same,"Fig_1a competition binding curve, source data",[1]; M -10,91.5385 and 88.2344 and 89.4739
same,"Fig_1a competition binding curve, source data",[1]; M -11,89.0395 and 93.1048 and 90.4743 and 90.2352 and 86.4089 and 84.7349
same,"Fig_1a competition binding curve, source data",[1]; M -12,100.518 and 86.6481 and 95.4962 and 94.7788 and 98.1268 and 94.5397
same,"Fig_1a competition binding curve, source data",[1]; M -13,93.8222 and 89.2786 and 87.6046 and 85.6915 and 92.3874 and 93.1048
same,Ki,DRD3 wild-type,186 nM
same,"Fig_1a competition binding curve, source data",DRD3 wild-type; M -6,32.8337 and 26.7408 and 38.6364 and 33.7041 and 31.0928
same,"Fig_1a competition binding curve, source data",DRD3 wild-type; M -7,71.7118 and 82.4468 and 88.2495 and 78.675 and 74.323 and 84.4778
same,"Fig_1a competition binding curve, source data",DRD3 wild-type; M -8.5,107.108 and 98.6944 and 100.725 and 87.3791 and 104.497 and 101.596
same,"Fig_1a competition binding curve, source data",DRD3 wild-type; M -9,98.4043 and 97.5338 and 93.7621 and 84.7679 and 88.8298 and 89.7002
same,"Fig_1a competition binding curve, source data",DRD3 wild-type; M -9.5,87.3791 and 78.3849 and 90.2805 and 81.5764 and 85.058 and 98.1141
same,"Fig_1a competition binding curve, source data",DRD3 wild-type; M -10,76.9342 and 89.7002 and 81.8665 and 72.2921 and 84.1876 and 72.0019
same,"Fig_1a competition binding curve, source data",DRD3 wild-type; M -11,74.6132 and 85.6383 and 84.7679 and 77.8046 and 89.7002 and 91.441
same,"Fig_1a competition binding curve, source data",DRD3 wild-type; M -12,84.7679 and 85.9284 and 102.466 and 78.0948 and 88.2495
same,"Fig_1a competition binding curve, source data",DRD3 wild-type; M -13,63.0077 and 75.4836 and 75.1934 and 78.675 and 77.5145 and 81.2863
same,Ki,[2],170 nM
same,"Fig_1a competition binding curve, source data",[2]; M -7,75.0526 and 67.9047 and 62.8591 and 59.9159 and 75.8935
same,"Fig_1a competition binding curve, source data",[2]; M -8,91.8711 and 84.3027 and 93.5529 and 96.4962
same,"Fig_1a competition binding curve, source data",[2]; M -8.5,103.224 and 99.4394 and 102.803 and 91.8711
same,"Fig_1a competition binding curve, source data",[2]; M -9,79.2572 and 91.8711 and 89.7687 and 85.9846 and 96.9166 and 113.735
same,"Fig_1a competition binding curve, source data",[2]; M -9.5,89.7687 and 87.246 and 104.905 and 87.6664 and 93.1325 and 88.9278
same,"Fig_1a competition binding curve, source data",[2]; M -10,74.6321 and 83.0413 and 75.8935 and 70.4275 and 85.5641 and 84.3027
same,"Fig_1a competition binding curve, source data",[2]; M -11,92.712 and 78.8367 and 85.1437 and 96.4962 and 77.9958 and 82.6209
same,"Fig_1a competition binding curve, source data",[2]; M -12,77.1549 and 85.1437 and 89.7687 and 83.4618 and 81.3595
same,"Fig_1a competition binding curve, source data",[2]; M -13,88.0869 and 85.5641 and 82.6209 and 79.6776 and 79.2572
same,ΔpKi (mutant-WT),DRD2 L942.64A,-0.45
same,ΔpKi (mutant-WT),DRD2 W100EL1A,-0.79
same,ΔpKi (mutant-WT),DRD2 W100ECL1F,-0.85
same,ΔpKi (mutant-WT),DRD2 V1113.29A,-0.26
same,ΔpKi (mutant-WT),DRD2 Y4087.35A,-0.10
same,ΔpKi (mutant-WT),DRD2 F1103.28W; DRD2 F1103.28W vs wild-type,-0.93
same,"binding reduced, mutant vs wild type",DRD2 F1103.28W; DRD2 Phe110^3.28Trp vs wild-type DRD2,8.51 fold
same,ΔpKi (mutant-WT),DRD2 F1103.28Y; DRD2 F1103.28Y vs wild-type,-1.76
same,"binding reduced, mutant vs wild type",DRD2 F1103.28Y; DRD2 Phe110^3.28Tyr vs wild-type DRD2,57.54 fold
same,ΔpKi (mutant-WT),DRD2 F1103.28L; DRD2 F1103.28L vs wild-type,1.27
same,"binding enhanced, mutant vs wild type",DRD2 F1103.28L; DRD2 Phe110^3.28Leu vs wild-type DRD2,18.65 fold
same,ΔpKi (mutant-WT),DRD2 F1103.28C,0.61
same,ΔpKi (mutant-WT),DRD2 F1103.28E,0.03
same,Ki,DRD3 F1063.28A,5.37 nM
same,ΔpKi (mutant-WT),DRD3 F1063.28A; DRD3 F1063.28A vs DRD3 wild-type,1.54
same,"binding affinity increased, mutant vs wild type",DRD3 F1063.28A; DRD3 Phe106^3.28Ala vs wild-type DRD3,34.67 fold
same,ΔpKi (mutant-WT),DRD2 F1103.28A; DRD2 F1103.28A vs wild-type,2.14
same,"affinity increase (binding enhanced), mutant vs wild type",DRD2 F1103.28A; DRD2 Phe110^3.28Ala vs wild-type DRD2,144.18 fold
